Measured values as given in patent US8956996B2, “Method for reducing nitrous oxide emission from soils” (BASF SE, priority 2009, dated 2015).

Legend:
[1] = system: N2O emission from soil; test: Loss of nitrate and ammonium nitrogen in LiHof soil, pyraclostrobin and boscalid (Example 3); conditions: for Effect on N2O emission from soil (in words): LiHof soil, fertilizer applied 1 day after compound (A); for Loss of NO3-N + NH4-N in mg N/10 g soil in 48 h: soil type LiHof, pyraclostrobin 250 g/ha, boscalid 2.33 g/L, fertilizer 1 day after compound (A), UTC 0.52
[2] = system: N2O emission from soil; test: Loss of nitrate and ammonium nitrogen in soil samples, Conway method, as indirect measure of N2O produced (Example 2); conditions: for Loss of NO3-N + NH4-N in mg N/10 g soil in 48 h: fertilizer 1 day after compound (A)
[3] = system: N2O emission from soils; test: N2O emission from potted corn after pyraclostrobin seed treatment, NPK fertilizer applied 10 days later (Example 1); assay type: in vivo, Zea mays
[4] = system: N2O emission from soils; test: Greenhouse trial: N2O emission from potted field soil planted with summer wheat (Example 4); assay type: in vivo; conditions: for Mean mg N2O-N/m^2: 4 weeks

| Compound | Effect on N2O emission from soil (in words) [1] | Loss of NO3-N + NH4-N in mg N/10 g soil in 48 h [1] [mg N/10 g soil] | Loss of NO3-N + NH4-N in mg N/10 g soil in 48 h ([2]; soil type LiHof, UTC 0.54) [mg N/10 g soil] | Loss of NO3-N + NH4-N in mg N/10 g soil in 48 h ([2]; soil type Sp 2.1, UTC 0.16) [mg N/10 g soil] | Loss of NO3-N + NH4-N in mg N/10 g soil in 48 h ([2]; soil type Sp 2.2, UTC 0.19) [mg N/10 g soil] | Loss of NO3-N + NH4-N in mg N/10 g soil in 48 h ([2]; soil type Sp 2.3, UTC 0.38) [mg N/10 g soil] | Loss of NO3-N + NH4-N in mg N/10 g soil in 48 h ([2]; soil type Sp 2.4, UTC 0.37) [mg N/10 g soil] | Loss of NO3-N + NH4-N in mg N/10 g soil in 48 h ([2]; soil type Sp 5M, UTC 0.27) [mg N/10 g soil] | Loss of NO3-N + NH4-N in mg N/10 g soil in 48 h ([2]; soil type Sp 6S, UTC 0.48) [mg N/10 g soil] | Effect on N2O emission from soil (in words) ([2]; various types of soil, fertilizer applied 1 day after compound (A)) | N2O increase over ambient ([3]; seed treatment 5 g/100 kg seeds, 0.3% NPK fertilizer HaKaPhos Blue applied on day 10, peak value on day 2 of three day measurement, N = 14, UTC 190) [ppbv/h] | Effect on N2O emission from soils (in words) ([3]; seed treatment, fertilizer applied 10 days after compound (A)) | Effect on N2O emission from soils (in words) ([4]; combined application of compound (A) and compound (B)) | Mean mg N2O-N/m^2 ([4]; pyraclostrobin 250 g/ha 8 days before the application of the fertilizer (ammonium nitrate 100 kg/ha)) [mg N2O-N/m^2] | Mean mg N2O-N/m^2 ([4]; pyraclostrobin 250 g/ha together with the application of the fertilizer (ammonium nitrate 100 kg/ha)) [mg N2O-N/m^2] | Effect on N2O emission from soils (in words) ([4]; pyraclostrobin and ammonium nitrate with time lag of 8 days, compared to fertilizer alone or joint application) |
| --- | --- | --- | --- | --- | --- | --- | --- | --- | --- | --- | --- | --- | --- | --- | --- | --- |
| O=C(Nc1ccccc1-c1ccc(Cl)cc1)c1cccnc1Cl [Boscalid, boscalid] | significantly reduced the N2O emission from soil | 0.35 | – | – | – | – | – | – | – | – | – | – | – | – | – | – |
| COC(=O)N(OC)c1ccccc1COc1ccn(-c2ccc(Cl)cc2)n1 [Pyraclostrobin, pyraclostrobin] | significantly reduced the N2O emission from soil | 0.09 | 0.06 | 0.03 | 0.02 | 0.18 | 0.13 | 0.10 | 0.21 | significantly reduce the N2O emission from soil | 107 | significantly reduce the N2O emission from soils | does not result in a reduction of N2O emission from soils | 100.9 | 314.9 | significantly reduced |
